Test system: panel of 235 cell lines representing 14 tumor lineages
Assay: ATPlite growth inhibition screening of a human cancer cell line panel (Horizon Discovery)
Assay type: cell-based
Protocol: A 72 hour ATPlite assay (except for DLD-1 and HCT116 cell lines, for which a 120 hour assay was performed) with growth inhibition analysis was performed in two parts at Horizon Discovery Ltd, UK. Samples were tested as four replicates in 384-well assay plates. Serial dilution series of antibody, starting from 0.072 μM final concentration was used for all tested cell lines. For TRAIL (Invitrogen; Cat # PHC1634) serial dilution series starting from 0.01 μM final concentration for the cell lines tested in the first part and 0.17 μM final concentration for the cell lines tested in the second part of the screening was used.

[1] = MCAS, ovary cancer, screening #1
[2] = MCF7, breast cancer, screening #2
[3] = MDA-MB-453, breast cancer (TNBC), screening #2
[4] = MDA-MB-468, breast cancer (TNBC), screening #2
[5] = OVCAR-5, ovary cancer, screening #1
[6] = OVK18, ovary cancer, screening #1
[7] = PK-1, pancreatic cancer, screening #1
[8] = PSN1, pancreatic cancer, screening #1
[9] = Panc 02.13, pancreatic cancer, screening #1
[10] = RERF-LC-KJ, NSCLC, screening #1
[11] = RT4, bladder cancer, screening #2
[12] = RT-112, bladder cancer, screening #2
[13] = SCaBER, bladder cancer, screening #1
[14] = SF295, neural tissue cancer, screening #2
[15] = SK-BR-3, breast cancer, screening #2
[16] = SNU119, ovary cancer, screening #1
[17] = SNU-308, liver cancer, screening #1
[18] = SW780, bladder cancer, screening #1
[19] = T47D, breast cancer, screening #2
[20] = T-24, bladder cancer, screening #2
[21] = TCCSUP, bladder cancer, screening #2
[22] = UM-UC-3, bladder cancer, screening #1

Substance: TRAIL: natural DR5 ligand, recombinant human TRAIL/APO-2L
- Max Inhibition (KURAMOCHI, ovary cancer, screening #1): 13.4%
- IC50 (LC1F, NSCLC, screening #1): 0.451 nM
- Max Inhibition (LC1F, NSCLC, screening #1): 74.3%
- IC50 (LC-1sq, NSCLC, screening #1): 0.781 nM
- Max Inhibition (LC-1sq, NSCLC, screening #1): 70.1%
- Max Inhibition (LCLC-97TM1, NSCLC, screening #1): 4.6%
- IC50 (LCLC-103H, NSCLC, screening #1): 8.02 nM
- Max Inhibition (LCLC-103H, NSCLC, screening #1): 54.2%
- Max Inhibition (LK-2, NSCLC, screening #1): 5.6%
- IC50 (LOU-NH91, NSCLC, screening #1): 5.38 nM
- Max Inhibition (LOU-NH91, NSCLC, screening #1): 63.0%
- Max Inhibition (LU-65, NSCLC, screening #1): 32.4%
- Max Inhibition (LU-99, NSCLC, screening #1): 6.3%
- IC50 (LUDLU-1, NSCLC, screening #1): 0.475 nM
- Max Inhibition (LUDLU-1, NSCLC, screening #1): 91.1%
- Max Inhibition (LXF-289, NSCLC, screening #1): 12.7%
- IC50 [1]: 56.8 nM
- Max Inhibition [1]: 48.4%
- IC50 [2]: 0.055 nM
- Max Inhibition [2]: 21.7%
- IC50 (MDA-MB-231, breast cancer (TNBC), screening #1): 0.11 nM
- IC50 (MDA-MB-436, breast cancer (TNBC), screening #2): 0.053 nM
- IC50 [3]: 34.6 nM
- Max Inhibition [3]: 20.7%
- IC50 [4]: 0.647 nM
- Max Inhibition [4]: 89.4%
- IC50 (MDST8, colorectal cancer, screening #1): 1.19 nM
- Max Inhibition (MEL-HO, melanoma, screening #1): 16.7%
- Max Inhibition (MEL-JUSO, melanoma, screening #1): 7.6%
- IC50 (MES-SA, endometrial cancer, screening #1): 0.107 nM
- IC50 (NCI-H460, NSCLC, screening #1): 0.853 nM
- Max Inhibition (NCI-H460, NSCLC, screening #1): 86.1%
- IC50 (NCI-H820, NSCLC, screening #1): 0.023 nM
- Max Inhibition (NCI-H820, NSCLC, screening #1): 100.0%
- IC50 (NMC-G1, neural tissue cancer, screening #2): 17.6 nM
- Max Inhibition (OV7, ovary cancer, screening #1): 20.4%
- IC50 [5]: 1.12 nM
- Max Inhibition [5]: 70.6%
- Max Inhibition (OVISE, ovary cancer, screening #1): 4.0%
- IC50 [6]: 0.23 nM
- Max Inhibition [6]: 80.0%
- Max Inhibition (OVTOKO, ovary cancer, screening #1): 28.0%
- IC50 [7]: 0.548 nM
- Max Inhibition [7]: 88.3%
- IC50 [8]: 0.205 nM
- Max Inhibition [8]: 86.9%
- IC50 [9]: 1.91 nM
- Max Inhibition [9]: 60.5%
- IC50 [10]: 0.633 nM
- Max Inhibition [10]: 68.9%
- IC50 (RL95-2, endometrial cancer, screening #1): 0.155 nM
- IC50 [11]: 0.244 nM
- Max Inhibition [11]: 91.5%
- IC50 [12]: 0.325 nM
- Max Inhibition [12]: 50.9%
- Max Inhibition (RVH-421, melanoma, screening #1): 22.5%
- IC50 [13]: 0.082 nM
- Max Inhibition [13]: 25.8%
- IC50 (SF126, neural tissue cancer, screening #2): 0.013 nM
- IC50 [14]: 0.023 nM
- Max Inhibition [14]: 87.5%
- IC50 [15]: 0.518 nM
- Max Inhibition [15]: 38.1%
- Max Inhibition (SK-MEL-30, melanoma, screening #1): 6.1%
- IC50 (SNB-75, neural tissue cancer, screening #2): 105 nM
- IC50 (SNG-II, endometrial cancer, screening #1): 1.03 nM
- IC50 (SNU5, gastric cancer, screening #1): 0.109 nM
- IC50 [16]: 0.082 nM
- Max Inhibition [16]: 83.7%
- IC50 (SNU1033, colorectal cancer, screening #1): 10.1 nM
- IC50 (SNU-175, colorectal cancer, screening #1): 0.122 nM
- IC50 [17]: 0.937 nM
- Max Inhibition [17]: 72.4%
- IC50 (SNU-407, colorectal cancer, screening #1): 0.098 nM
- IC50 (SNU-478, liver cancer, screening #1): 0.516 nM
- IC50 (SNU-601, gastric cancer, screening #1): 0.284 nM
- IC50 (SNU-620, gastric cancer, screening #1): 0.045 nM
- IC50 (SNU-668, gastric cancer, screening #1): 0.041 nM
- IC50 (SNU-719, gastric cancer, screening #1): 1.13 nM
- IC50 (SNU-869, liver cancer, screening #1): 2.95 nM
- Max Inhibition (SNU-878, liver cancer, screening #1): 36.2%
- IC50 (SNU-1197, colorectal cancer, screening #1): 0.053 nM
- IC50 (SNU-C2B, colorectal cancer, screening #1): 0.713 nM
- IC50 (SUM159PT, breast cancer (TNBC), screening #2): 0.033 nM
- IC50 (SW480, colorectal cancer, screening #1): 2.04 nM
- IC50 [18]: 0.016 nM
- Max Inhibition [18]: 97.9%
- IC50 (SW837, colorectal cancer, screening #1): 0.94 nM
- Max Inhibition (SW1573, NSCLC, screening #1): 13.9%
- IC50 (T3M-10, NSCLC, screening #1): 0.495 nM
- Max Inhibition (T3M-10, NSCLC, screening #1): 83.7%
- IC50 [19]: 347 nM
- Max Inhibition [19]: 8.4%
- IC50 [20]: 0.166 nM
- Max Inhibition [20]: 20.5%
- IC50 [21]: 0.048 nM
- Max Inhibition [21]: 51.5%
- IC50 (TE-4, head and neck cancer, screening #1): 0.107 nM
- IC50 (TE-6, head and neck cancer, screening #1): 3.92 nM
- IC50 (TE-9, head and neck cancer, screening #1): 0.3 nM
- IC50 (TEN, endometrial cancer, screening #1): 1.21 nM
- IC50 (U-87 MG, neural tissue cancer, screening #2): 0.053 nM
- IC50 [22]: 0.005 nM
- Max Inhibition [22]: 99.4%
- Max Inhibition (VMRC-LCD, NSCLC, screening #1): 19.2%
- Max Inhibition (WM-266-4, melanoma, screening #1): 42.5%
- IC50 (YD-15, head and neck cancer, screening #1): 0.114 nM
- IC50 (YH-13, neural tissue cancer, screening #2): 0.317 nM
- responder cell lines (maximum response threshold 70% inhibition) (monotherapy, 72 hour ATPlite assay): found for all tested tumor indications, except small cell lung cancer (SCLC)

— patent publication US20200247897A1, “THERAPEUTIC ANTIBODIES BASED ON MUTATED IGG HEXAMERS” (GENMAB B.V., priority 2017, published 2020)
